From ChEMBL document CHEMBL1152857, “Possible anticancer agents: QSAR analogs of glutamamide: synthesis and pharmacological activity of 1,5-N,N'-disubstituted-2-(substituted benzenesulphonyl) glutamamides” (2009) come the findings set out here.

One experiment concerns IMR-32. The experiment can be described thus: Cytotoxicity against human IMR32 cells at 60 ug/ml by MTT assay. Format: functional. A general note: Formazan colour is commonly taken as a measure of viable cells.
Experiment [1] is described as follows: Anticancer activity against mouse EAC cells xenografted in Swiss albino mouse assessed as inhibition of ascitic fluid weight. Type of experiment: functional, Ehrlich.
Experiment [2] in a line: Anticancer activity against mouse EAC cells xenografted in Swiss albino mouse assessed as inhibition of ascitic cell count. Type of experiment: functional, Ehrlich.
A short description of experiment [3]: Anticancer activity against mouse EAC cells xenografted in Swiss albino mouse assessed as inhibition of ascitic cell count at 1 mg/kg. Type of experiment: functional. As to conditions: Ehrlich.
Experiment [4] can be described thus: Anticancer activity against mouse EAC cells xenografted in Swiss albino mouse assessed as inhibition of ascitic fluid weight at 1 mg/kg. Type of experiment: functional. Particulars: Ehrlich.

In general, inhibition refers to the share of the control response that was lost under treatment. Higher therefore signals a response far below the control. In turn, `CC(C)CNC(=O)CCC(NS(=O)(=O)c1ccc(Br)cc1)C(=O)NCC(C)C` (stereo not given) displayed an inhibition at 60 µg/mL with IMR-32 of 17.1%. For the same compound, the “inhibition (INH)” value in experiment [1] is 54%; in experiment [2], 50.8%.

In the experiment with IMR-32, `O=C(CCC(NS(=O)(=O)c1ccc(Br)cc1)C(=O)NC1CCCCC1)NC1CCCCC1` (stereo not given) registered an inhibition at 60 µg/mL of 18.4%. Besides, the “inhibition (INH)” value is 43% in experiment [1] and 47% in experiment [2].

For the compound `O=C(CCC(NS(=O)(=O)c1ccc(Cl)c(Cl)c1)C(=O)NC1CCCCC1)NC1CCCCC1` (stereo not given), 60 µg/mL produced 24% inhibition in the experiment with IMR-32. In addition, the “inhibition (INH)” value in experiment [1] came out at 16.8%; in experiment [2], 17.4%.

`O=C(CCC(NS(=O)(=O)c1cc(Cl)ccc1Cl)C(=O)NCc1ccccc1)NCc1ccccc1` (stereo not given) returned an inhibition at 60 µg/mL in the experiment on IMR-32 of 13.4%. The “inhibition (INH)” value in experiment [1] came to 49.9%; in experiment [2] it was 53.1%.

On to `O=C(CCC(NS(=O)(=O)c1ccc(Cl)c(Cl)c1)C(=O)NCc1ccccc1)NCc1ccccc1` (stereo not given), for which 60 µg/mL produced 11.4% inhibition in the experiment on IMR-32. The “inhibition (INH)” value in experiment [1] was 40%; in experiment [2], 45.3%.

`CCNC(=O)CCC(NS(=O)(=O)c1cc(C)ccc1Cl)C(=O)NCC` (stereo not given) came in with an inhibition at 60 µg/mL in the experiment on IMR-32 of 31.8%. Also, the “inhibition (INH)” value in experiment [1] came to 28.1%; in experiment [2], 32.3%.

In the case of `CCNC(=O)CCC(NS(=O)(=O)c1ccc(C(C)(C)C)cc1)C(=O)NCC` (stereo not given), the inhibition at 60 µg/mL with IMR-32 was 58.4%. Also, the entries for the “inhibition (INH)” value in experiment [1] and in experiment [2] were 30.8% and 21.6%, respectively.

As for `CC(C)CNC(=O)CCC(NS(=O)(=O)c1cc(Cl)ccc1Cl)C(=O)NCC(C)C` (stereo not given), in the experiment on IMR-32, the inhibition at 60 µg/mL was determined as 20.4%. Besides, the results for the “inhibition (INH)” value in experiment [1] and in experiment [2] were 42.5% and 79.3%, respectively.

In the experiment with IMR-32, `CCCCCCNC(=O)CCC(NS(=O)(=O)c1cc(Cl)ccc1Cl)C(=O)NCCCCCC` (stereo not given) showed an inhibition at 60 µg/mL of 12.4%. For the same compound, the “inhibition (INH)” value amounted to 31.9% in experiment [1] and 52.9% in experiment [2].

Regarding `CC(C)NC(=O)CCC(NS(=O)(=O)c1ccc(C(C)(C)C)cc1)C(=O)NC(C)C` (stereo not given), in the experiment with IMR-32, at 60 µg/mL the inhibition was 65.6%. For the same compound, the “inhibition (INH)” value is 44.7% in experiment [1] and 34.1% in experiment [2].

`Cc1ccc(S(=O)(=O)NC(CCC(N)=O)C(N)=O)c(C)c1` (stereo not given): the inhibition at 60 µg/mL with IMR-32 is 28.2%. The entries for the “inhibition (INH)” value in experiment [1] and in experiment [2] were 31.2% and 35.2%, respectively.

For the compound `O=C(CCC(NS(=O)(=O)c1ccc(Br)cc1)C(=O)Nc1ccccc1)Nc1ccccc1` (stereo not given), in the experiment on IMR-32, the inhibition at 60 µg/mL worked out at 10%. The “inhibition (INH)” value in experiment [1] turned out to be 63.4%; in experiment [2], 66.5%.

As for `CCCNC(=O)CCC(NS(=O)(=O)c1cc(C)ccc1Cl)C(=O)NCCC` (stereo not given), the inhibition at 60 µg/mL in the experiment on IMR-32 worked out at 14.9%.

With `CC(C)(C)c1ccc(S(=O)(=O)NC(CCC(N)=O)C(N)=O)cc1` (stereo not given), the “inhibition (INH)” value in experiment [1] came to 27.5%; in experiment [2], 42.15%.

Take `CC(C)NC(=O)CCC(NS(=O)(=O)c1cc(Cl)ccc1Cl)C(=O)NC(C)C` (stereo not given): at 60 µg/mL the inhibition in the experiment with IMR-32 was 16.7%. For the same compound, the “inhibition (INH)” value in experiment [1] was 38.5%; in experiment [2], 73.3%.

Regarding `Cc1ccc(Cl)c(S(=O)(=O)NC(CCC(=O)NCC(C)C)C(=O)NCC(C)C)c1` (stereo not given), the figures for the “inhibition (INH)” value in experiment [1] and in experiment [2] were 27.9% and 40%, respectively.

Take `Cc1ccc(Cl)c(S(=O)(=O)NC(CCC(=O)NC2CCCCC2)C(=O)NC2CCCCC2)c1` (stereo not given): in the experiment with IMR-32, 60 µg/mL produced 49.7% inhibition. Moreover, the “inhibition (INH)” value amounted to 40.2% in experiment [1] and 35% in experiment [2].

Regarding `Cc1ccc(Cl)c(S(=O)(=O)NC(CCC(=O)NCc2ccccc2)C(=O)NCc2ccccc2)c1` (stereo not given), the “inhibition (INH)” value in experiment [1] turned out to be 36.5%; in experiment [2] it was 50.5%.

In turn, `CCCCCNC(=O)CCC(NS(=O)(=O)c1cc(C)ccc1Cl)C(=O)NCCCCC` (stereo not given) yielded an inhibition at 60 µg/mL with IMR-32 of 14.7%. The results for the “inhibition (INH)” value in experiment [1] and in experiment [2] were 33.3% and 47.1%, respectively.

Consider `CCCCCCNC(=O)CCC(NS(=O)(=O)c1cc(C)ccc1Cl)C(=O)NCCCCCC` (stereo not given), for which the inhibition at 60 µg/mL with IMR-32 is 11.3%. Further, the “inhibition (INH)” value in experiment [1] is on record as 24.2%; in experiment [2], 33.4%.

On to `Cc1ccc(Cl)c(S(=O)(=O)NC(CCC(N)=O)C(N)=O)c1` (stereo not given), for which the inhibition at 60 µg/mL in the experiment with IMR-32 is 25.8%. For the same compound, the results for the “inhibition (INH)” value in experiment [1] and in experiment [2] were 36.5% and 28.6%, respectively.

With `CCCCNC(=O)CCC(NS(=O)(=O)c1ccc(C)cc1C)C(=O)NCCCC` (stereo not given), testing at 60 µg/mL in the experiment with IMR-32 gave an inhibition of 46.1%. For the same compound, the results for the “inhibition (INH)” value in experiment [1] and in experiment [2] were 46.1% and 35.6%, respectively.

With `CCCCCNC(=O)CCC(NS(=O)(=O)c1ccc(Cl)c(Cl)c1)C(=O)NCCCCC` (stereo not given), the inhibition at 60 µg/mL in the experiment on IMR-32 was 20.8%. Moreover, the entries for the “inhibition (INH)” value in experiment [1] and in experiment [2] were 28.1% and 10%, respectively.

In the experiment on IMR-32, `CCCCNC(=O)CCC(NS(=O)(=O)c1cc(C)ccc1Cl)C(=O)NCCCC` (stereo not given) had an inhibition at 60 µg/mL of 18%. For the same compound, the “inhibition (INH)” value in experiment [1] is given as 25.2%; in experiment [2] it was 43.5%.

Turning to `Cc1ccc(Cl)c(S(=O)(=O)NC(CCC(=O)Nc2ccccc2)C(=O)Nc2ccccc2)c1` (stereo not given), the “inhibition (INH)” value in experiment [1] worked out at 41.2%; in experiment [2], 45.5%.

`CCCCNC(=O)CCC(NS(=O)(=O)c1cc(Cl)ccc1Cl)C(=O)NCCCC` (stereo not given) yielded an inhibition at 60 µg/mL with IMR-32 of 15.8%. Moreover, the “inhibition (INH)” value in experiment [1] came out at 34%; in experiment [2] it was 57.9%.

In turn, `CCCCCCNC(=O)CCC(NS(=O)(=O)c1ccc(C)cc1C)C(=O)NCCCCCC` (stereo not given) displayed an inhibition at 60 µg/mL in the experiment on IMR-32 of 66%. Further, the entries for the “inhibition (INH)” value in experiment [1] and in experiment [2] were 38.4% and 52.1%, respectively.

For `O=C(CCC(NS(=O)(=O)c1ccc(Br)cc1)C(=O)NCc1ccccc1)NCc1ccccc1` (stereo not given), the “inhibition (INH)” value in experiment [1] is recorded as 70%; in experiment [2] it was 48.9%.

In the experiment with IMR-32, `CCCCCNC(=O)CCC(NS(=O)(=O)c1cc(Cl)ccc1Cl)C(=O)NCCCCC` (stereo not given) displayed an inhibition at 60 µg/mL of 12.2%. The “inhibition (INH)” value in experiment [1] came out at 41.2%; in experiment [2], 61.1%.

As for `Cc1ccc(Cl)c(S(=O)(=O)NC(CCC(=O)NC(C)C)C(=O)NC(C)C)c1` (stereo not given), 60 µg/mL produced 29.8% inhibition in the experiment on IMR-32. Besides, the “inhibition (INH)” value in experiment [1] is 81.5%; in experiment [2] it was 53%.

Compound `CCNC(=O)CCC(NS(=O)(=O)c1cc(Cl)ccc1Cl)C(=O)NCC` (stereo not given) yielded an inhibition at 60 µg/mL with IMR-32 of 12.9%. Further, the “inhibition (INH)” value amounted to 60.5% in experiment [1] and 67.5% in experiment [2].

In the experiment with IMR-32, `O=C(CCC(NS(=O)(=O)c1cc(Cl)ccc1Cl)C(=O)Nc1ccccc1)Nc1ccccc1` (stereo not given) yielded an inhibition at 60 µg/mL of 22.9%. In addition, the figures for the “inhibition (INH)” value in experiment [1] and in experiment [2] were 35.2% and 71.1%, respectively.

In general, inhibition in vivo refers to the relative decrease from the control value, in per cent. As for `[N-]=[N+]=CC(=O)CC[C@H](N)C(=O)O` [6-DIAZO-5-OXO-L-NORLEUCINE], the inhibition in vivo at 1 mg/kg in experiment [3] and in experiment [4] was 100% each time.

With `N#[N+]/C=C(\[O-])OC[C@H](N)C(=O)O` [AZASERIN], the inhibition in vivo at 1 mg/kg in experiment [3] and in experiment [4] was 100% each time.

With `CO[C@@]12[C@H](COC(N)=O)C3=C(C(=O)C(C)=C(N)C3=O)N1C[C@@H]1N[C@@H]12` [MITOMYCIN], the inhibition in vivo at 1 mg/kg in experiment [3] and in experiment [4] was 100% in each case.
